Laboratory results published in US20060069132A1, “Azolecarboxamide herbicides” (priority 2004, published 2006).

Assays:
giant foxtail = experiment: Test A pre-/postemergence herbicide test; type: in vivo, Setaria faberi
Method in brief: (§1)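 Sandy loam soil given preemergence directed spray; plants at 2 to 10 cm, one- to two-leaf stage, sprayed to runoff postemergence, compounds in non-phytotoxic solvent with surfactant. Injury rated visually versus untreated controls after about ten greenhouse days, 0 (no effect) to 100 (complete control); dash means not tested.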

lambsquarters [1] = experiment: Test C pre-/postemergence herbicide test; type: in vivo, Chenopodium album; settings: for Plant response rating, Lambsquarters: preemergence; for Lambsquarters plant response rating: Preemergence, scale 0 to 100, 0 no effect, 100 complete control
Method in brief: (§2)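 Preemergence: seeds planted and treated with compound in non-phytotoxic solvent with surfactant; postemergence: plants at 2 to 18 cm (1- to 4-leaf stage) sprayed likewise. Kept in greenhouse 12 to 14 days, then visually rated against controls, 0 (no effect) to 100 (complete control).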

johnsongrass = experiment: Test C pre-/postemergence herbicide test; type: in vivo, Sorghum halepense; settings: for Plant response rating, Johnsongrass: preemergence; for Johnsongrass plant response rating: Preemergence, scale 0 to 100, 0 no effect, 100 complete control
Method in brief: as §2

large crabgrass = experiment: Test A pre-/postemergence herbicide test; type: in vivo, Digitaria sanguinalis
Method in brief: as §1

lambsquarters [2] = experiment: Test B pre-/postemergence herbicide test; type: in vivo, Chenopodium album; settings: for Lambsquarters plant response rating (0 to 100 scale) / Plant response rating, Lambsquarters: preemergence; for Lambsquarters plant response rating: postemergence, scale 0 (no effect) to 100 (complete control)
Method in brief: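 Herbicidal effect was judged by eye on a 0–100 scale after plants stood 13 to 15 days in the greenhouse following pre- or postemergence treatment with surfactant-containing formulations.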

[3] = test system: common (oilseed) sunflower; experiment: Test C pre-/postemergence herbicide test; type: in vivo, Helianthus annuus; settings: for Plant response rating, Sunflower: preemergence; for Sunflower plant response rating: Preemergence, scale 0 to 100, 0 no effect, 100 complete control
Method in brief: as §2

morningglory = experiment: Test A pre-/postemergence herbicide test; type: in vivo, Ipomoea spp.
Method in brief: as §1

[4] = Postemergence, 500 g ai/ha, 0 to 100 scale, 0 no effect, 100 complete control
[5] = Postemergence, 2000 g ai/ha, 0 to 100 scale, 0 no effect, 100 complete control
[6] = Preemergence, 2000 g ai/ha, visual rating, 0 to 100 scale (0 no effect, 100 complete control)
[7] = preemergence, 500 g ai/ha, visual injury, 0 to 100 scale (0 no effect, 100 complete control)
[8] = 125 g ai/ha, scale 0 (no effect) to 100 (complete control), visual, 12 to 14 days
[9] = 125 g ai/ha, 0 = no effect, 100 = complete control
[10] = 500 g ai/ha, visual rating 0-100, 0 no effect, 100 complete control
[11] = 500 g ai/ha, scale 0 to 100 (0 no effect, 100 complete control), visual, 12 to 14 days

Row | SMILES | Foxtail, Giant plant response rating (giant foxtail; [4]) | Plant response rating, Foxtail, Giant (giant foxtail; [5]) | Foxtail, Giant plant response rating (giant foxtail; [6]) | Foxtail, Giant plant response rating (giant foxtail; [7]) | Plant response rating, Lambsquarters (lambsquarters [1]; 62 g ai/ha, scale 0 to 100) | Plant response rating, Lambsquarters (lambsquarters [1]; [8]) | Plant response rating, Lambsquarters (lambsquarters [1]; 250 g ai/ha, scale 0-100) | Plant response rating, Johnsongrass (johnsongrass; 62 g ai/ha, scale 0 to 100) | Plant response rating, Johnsongrass (johnsongrass; [8]) | Plant response rating, Johnsongrass (johnsongrass; 250 g ai/ha, scale 0-100) | Crabgrass, Large plant response rating (large crabgrass; [4]) | Plant response rating, Crabgrass, Large (large crabgrass; [5]) | Crabgrass, Large plant response rating (large crabgrass; [6]) | Crabgrass, Large plant response rating (large crabgrass; [7]) | Lambsquarters plant response rating (0 to 100 scale) (lambsquarters [2]; [9]) | Lambsquarters plant response rating (lambsquarters [2]; 125 g ai/ha, visual rating) | Lambsquarters plant response rating (lambsquarters [2]; 500 g ai/ha, visual rating) | Plant response rating, Sunflower ([3]; 62 g ai/ha, scale 0 to 100) | Plant response rating, Sunflower [3, 8] | Plant response rating, Sunflower ([3]; 250 g ai/ha, scale 0-100) | also measured
1 | CC(=NO)c1cccc(NC(=O)c2sc(C(C)(C)C)nc2C)c1 [Compound 195] | 5 | 0 | 45 | 30 | 0 | 0 | 10 | 0 | 0 | 0 | 10 | 25 | 95 | 75 | 0 | 0 | 60 | 0 | 0 | 0 | Lambsquarters plant response rating (lambsquarters [1]; 500 g ai/ha): 95; Johnsongrass plant response rating (johnsongrass; 500 g ai/ha): 0; Plant response rating, Lambsquarters (lambsquarters [2]; [10]): 80; Sunflower plant response rating ([3]; 500 g ai/ha): 10; Morningglory plant response rating (morningglory; [4]): 10; Plant response rating, Morningglory (morningglory; [5]): 10; Morningglory plant response rating (morningglory; [6]): 10; Morningglory plant response rating (morningglory; [7]): 5
2 | CCNC(=O)c1cccc(NC(=O)c2sc(C(C)(C)C)nc2C)c1 [Compound 198] | 30 | 65 | 95 | 90 | 85 | 100 | 100 | 0 | 30 | 60 | 20 | 65 | 90 | 80 | 100 | 70 | 70 | 0 | 0 | 10 | Lambsquarters plant response rating (lambsquarters [1]; 500 g ai/ha): 100; Johnsongrass plant response rating (johnsongrass; 500 g ai/ha): 95; Plant response rating, Lambsquarters (lambsquarters [2]; [10]): 100; Sunflower plant response rating ([3]; 500 g ai/ha): 20; Morningglory plant response rating (morningglory; [4]): 60; Plant response rating, Morningglory (morningglory; [5]): 75; Morningglory plant response rating (morningglory; [6]): 85; Morningglory plant response rating (morningglory; [7]): 45
3 | CCNC(=O)c1cccc(NC(=O)c2sc(C(C)(C)C)nc2CC)n1 [Compound 213] | 20 | 25 | 85 | 60 | 80 | 95 | 100 | 0 | 55 | 60 | 20 | 30 | 95 | 55 | 30 | 0 | 40 | 0 | 0 | 0 | Plant response rating, Lambsquarters (lambsquarters [1]; [11]): 100; Plant response rating, Johnsongrass (johnsongrass; [11]): 80; Plant response rating, Lambsquarters (lambsquarters [2]; 500 g ai/ha, visual rating, 0 = no effect, 100 = complete control): 100; Plant response rating, Sunflower [3, 11]: 0; Morningglory plant response rating (morningglory; [4]): 20; Plant response rating, Morningglory (morningglory; [5]): 10; Morningglory plant response rating (morningglory; [6]): 60; Morningglory plant response rating (morningglory; [7]): 25
